One may read the EC50 as the concentration needed to bring the measured effect to its halfway point. Usually inhibition stands for the percentage by which the read-out fell short of the control.

The results in this text go back to ChEMBL document CHEMBL4420062, “Tfpi inhibitors and methods of use” (2013).

For series [1], the target named is T1, Tissue factor pathway inhibitor (Homo sapiens, UniProt P10646).
T1 sequence (P10646 whole entry): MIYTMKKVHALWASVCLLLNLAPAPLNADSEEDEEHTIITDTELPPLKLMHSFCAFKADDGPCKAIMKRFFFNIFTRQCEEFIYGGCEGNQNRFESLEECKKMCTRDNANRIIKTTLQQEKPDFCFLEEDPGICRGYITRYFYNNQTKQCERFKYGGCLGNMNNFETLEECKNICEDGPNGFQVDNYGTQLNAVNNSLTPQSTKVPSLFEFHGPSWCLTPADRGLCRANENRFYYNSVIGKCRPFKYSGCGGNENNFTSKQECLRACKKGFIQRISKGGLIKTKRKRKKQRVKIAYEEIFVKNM
As to the kind of experiment: Inhibition of TFPI in human plasma with induced factor-8 deficiency assessed as increase in thrombin generation by measuring FEIBA at 10 uM using thrombin-specific fluorogenic substrate Z-Gly-Gly-Arg-AMC by calibrated automated thrombography. Type of series: cell-free.

Series [2] concerns the target Tissue factor pathway inhibitor (Homo sapiens) (UniProt P10646). As to the kind of experiment: Inhibition of TFPI in human plasma with induced factor-8 deficiency assessed as increase in thrombin generation by measuring FEIBA at 10 uM using thrombin-specific fluorogenic substrate Z-Gly-Gly-Arg-AMC by calibrated automated thrombography relative to inhibitory polyclonal anti-TFPI antibody. The format is cell-free.

Series [3] can be described thus: Stability in mouse plasma assessed as parent compound remaining after 24 hrs. Conditions: read-out: Stability. Type of series: ADME, cell-free.
The nature of series [4]: Stability in human plasma assessed as parent compound remaining after 24 hrs. The following applies: read-out: Stability. The format is ADME, cell-free.
The subject of series [5] is Plasma. As to the kind of experiment: Effect on blood coagulation parameters in plasma isolated from hemophilia A patient at 120 nM by rotation thromboelastography (reference value: 0%). Type of series: functional, Homo sapiens.
Series [6] concerns Plasma. Nature of the series: (§1) Effect on blood coagulation parameters in plasma isolated from hemophilia A patient assessed as clot formation time at […] by rotation thromboelastography (reference value: 1540 secs). The format is functional, Homo sapiens.
The subject of series [7] is Plasma. As to the kind of experiment: (§2) Effect on blood coagulation parameters in plasma isolated from hemophilia A patient assessed as clotting time at […] by rotation thromboelastography (reference value: 2907 secs). The format is functional, Homo sapiens.
The subject of series [8] is Plasma. As to the kind of experiment: Effect on blood coagulation parameters in plasma isolated from hemophilia A patient assessed as clot formation time at 120 nM by rotation thromboelastography (reference value: 1540 secs). The format is functional, Homo sapiens.
Series [9] concerns Plasma. As to the kind of experiment: Effect on blood coagulation parameters in plasma isolated from hemophilia A patient assessed as maximum clot firmness at 120 nM by rotation thromboelastography. Type of series: functional, Homo sapiens.
Series [10] relates to Plasma. Nature of the series: Effect on blood coagulation parameters in plasma isolated from hemophilia A patient assessed as clotting time at 40 nM by rotation thromboelastography (reference value: 2907 secs). Type of series: functional, Homo sapiens.
Series [11] has as its system Plasma. Nature of the series: Effect on blood coagulation parameters in plasma isolated from hemophilia A patient at 40 nM by rotation thromboelastography (reference value: 0%). The format is functional, Homo sapiens.
The subject of series [12] is Plasma. As to the kind of experiment: (§3) Effect on blood coagulation parameters in plasma isolated from hemophilia A patient at […] by rotation thromboelastography (reference value: 0%). Type of series: functional, Homo sapiens.
In series [13] the test system is Plasma. The description is as §1. Type of series: functional, Homo sapiens. This is another data set of the same source.
Series [14] concerns Plasma. As to the kind of experiment: Effect on blood coagulation parameters in plasma isolated from hemophilia A patient assessed as clotting time at 120 nM by rotation thromboelastography (reference value: 2907 secs). The format is functional, Homo sapiens.
Series [15] concerns Plasma. The description is as §2. The format is functional, Homo sapiens. The source holds these as a separate data set.
In series [16] the test system is Plasma. Nature of the series: Effect on blood coagulation parameters in plasma isolated from hemophilia A patient assessed as clot formation time at 40 nM by rotation thromboelastography (reference value: 1540 secs). The format is functional, Homo sapiens.
Series [17] deals with Plasma. The series is described as §3. The format is functional, Homo sapiens. The source holds these as a separate data set.
Series [18] has as its system Plasma. Nature of the series: Effect on blood coagulation parameters in plasma isolated from hemophilia A patient assessed as maximum clot firmness at 40 nM by rotation thromboelastography. The format is functional, Homo sapiens.
The subject of the next series is Callithrix. The following applies: Plasma, 10 uM.

The source made the active and inactive calls. The rule behind the calls is not given here.

For the compound `CSCC[C@@H]1NC(=O)[C@H](C)NC(=O)[C@H](NC(=O)[C@H](Cc2cnc[nH]2)NC(=O)[C@H](Cc2c[nH]c3ccccc23)NC(=O)[C@H](CCCCN)NC(=O)[C@H](Cc2ccc(O)cc2)NC(=O)[C@H](Cc2cnc[nH]2)NC(=O)[C@H](CO)NC(C)=O)CSSC[C@@H](C(=O)N[C@H](C(=O)N[C@@H](Cc2c[nH]c3ccccc23)C(=O)N[C@H](C(=O)N[C@@H](CCCCN)C(=O)N[C@@H](Cc2ccccc2)C(N)=O)C(C)C)C(C)C)NC(=O)[C@H](CO)NC(=O)[C@H](CCSC)NC(=O)[C@H]([C@@H](C)O)NC(=O)CNC(=O)[C@H]([C@@H](C)O)NC(=O)[C@H](CCSC)NC(=O)[C@H](CC(=O)O)NC(=O)[C@H](CCCNC(=N)N)NC1=O`, the concentration giving a half-maximal response (EC50) in [1] turned out to be 4.8 nM. Further, the inhibition in series [2] was 55.9%.
As for `CCN1C(=O)CC(SC[C@H](NC(=O)[C@H](CC(C)C)NC(=O)[C@H](CCCCN)NC(=O)[C@H](C)NC(=O)C(C)(C)NC(=O)[C@H](CC(C)C)NC(=O)[C@H](CCCNC(=N)N)NC(=O)[C@H](CCC(=O)O)NC(=O)[C@H](Cc2ccccc2)NC(=O)[C@H](Cc2ccc(O)cc2)NC(=O)CNC(=O)[C@H](CC(=O)O)NC(=O)[C@@H](NC(=O)[C@H](Cc2cnc[nH]2)NC(=O)[C@@H](NC(=O)[C@H](CC(N)=O)NC(=O)[C@H]2CCCN2C(=O)[C@H](CCCCN)NC(=O)[C@H](CO)NC(=O)[C@H](CCC(N)=O)NC(=O)[C@H](Cc2ccccc2)NC(C)=O)C(C)C)C(C)C)C(N)=O)C1=O` (stereo partly drawn), the figures for the remaining at 24 h in series [3] and in series [4] were 10 to 15.9% and 10 to 23.8%, respectively. The Activity with Plasma [5] was determined as 139%; in the series on Plasma [9] it was 64 mm; in the series with Plasma [11], 119%; in the series on Plasma [12], 44%; with Plasma [17], 0%; in the series on Plasma [18] it was 64 mm. The Time in the series with Plasma [6] came to 1480 s; with Plasma [7] it was 2249 s; in the series with Plasma [8] it was 219 s; in the series with Plasma [10], 1143 s; with Plasma [13] it was 2488 s; in the series with Plasma [14] it was 853 s. Moreover, the Time with Plasma [15] amounted to 2901 s; with Plasma [16], 457 s.
For the compound `CC(=O)N[C@@H](Cc1ccccc1)C(=O)N[C@@H](CCC(N)=O)C(=O)N[C@@H](CO)C(=O)N[C@@H](CCCCN)C(=O)N1CCC[C@@H]1C(=O)N[C@@H](CC(N)=O)C(=O)N[C@H](C(=O)N[C@@H](Cc1cnc[nH]1)C(=O)N[C@H](C(=O)N[C@@H](CC(=O)O)C(=O)N[C@H](C)C(=O)N[C@@H](Cc1ccc(O)cc1)C(=O)N[C@@H](Cc1ccccc1)C(=O)N[C@@H](CCC(=O)O)C(=O)N[C@@H](CCCNC(=N)N)C(=O)N[C@@H](CC(C)C)C(=O)NC(C)(C)C(=O)N[C@@H]1CSSCCNC(=O)[C@H](CC(C)C)NC(=O)[C@H](CCCCN)NC1=O)C(C)(C)C)C(C)C`, the figures for the remaining at 24 h in series [3] and in [4] were 34.3% and 12.1%, respectively.
Taken in the same sequence, the figures for `CC(=O)N[C@@H](Cc1ccccc1)C(=O)N[C@@H](CCC(N)=O)C(=O)N[C@@H](CO)C(=O)N[C@@H](CCCCN)C(=O)N1CCC[C@@H]1C(=O)N[C@@H](CC(N)=O)C(=O)N[C@H](C(=O)N[C@@H](Cc1c[nH]cn1)C(=O)N[C@H](C(=O)N[C@@H](CC(=O)O)C(=O)NCC(=O)N[C@@H](Cc1ccc(O)cc1)C(=O)N[C@@H](Cc1ccccc1)C(=O)N[C@@H](CCC(=O)O)C(=O)N[C@@H](CCCNC(=N)N)C(=O)N[C@@H](CC(C)C)C(=O)NC(C)(C)C(=O)N[C@@H](C)C(=O)N[C@@H](CCCCN)C(=O)N[C@@H](CC(C)C)C(N)=O)C1CCCCC1)C(C)C` were 5.4% and 27.6%.
In the case of `CC(=O)N[C@@H](Cc1ccccc1)C(=O)N[C@@H](CCC(N)=O)C(=O)N[C@@H](CO)C(=O)N[C@@H](CCCCN)C(=O)N1CCC[C@@H]1C(=O)N[C@@H](CC(N)=O)C(=O)N[C@H](C(=O)N[C@@H](Cc1cnc[nH]1)C(=O)N[C@H](C(=O)N[C@@H](CC(=O)O)C(=O)N[C@H](C)C(=O)N[C@@H](Cc1ccc(O)cc1)C(=O)N[C@@H](Cc1ccccc1)C(=O)N[C@@H](CCC(=O)O)C(=O)N[C@@H](CCCNC(=N)N)C(=O)N[C@@H](CC(C)C)C(=O)NC(C)(C)C(=O)N[C@@H](C)C(=O)N[C@@H](CCCCN)C(=O)N[C@@H](CC(C)C)C(N)=O)C(C)(C)C)C(C)C`, the remaining at 24 h is 47.2% in [3] and 100% in series [4].
Consider `CSCC[C@@H]1NC(=O)[C@H](C)NC(=O)[C@@H](NC(=O)[C@H](Cc2cnc[nH]2)NC(=O)[C@H](Cc2c[nH]c3ccccc23)NC(=O)[C@H](CCCCN)NC(=O)[C@H](Cc2ccc(O)cc2)NC(=O)[C@H](Cc2ccc(O)cc2)NC(=O)[C@H](CO)NC(C)=O)CSSC[C@@H](C(=O)N[C@H](C(=O)N[C@@H](Cc2c[nH]c3ccccc23)C(=O)N[C@H](C(=O)N[C@@H](CCCCN)C(=O)N[C@@H](Cc2ccccc2)C(N)=O)C(C)C)C(C)C)NC(=O)[C@H]([C@@H](C)O)NC(=O)[C@H](CCSC)NC(=O)[C@H]([C@@H](C)O)NC(=O)CNC(=O)[C@@H](CCCCN)NC(=O)[C@H](CCSC)NC(=O)[C@H](CC(=O)O)NC(=O)[C@H](CCCNC(=N)N)NC1=O`, for which the inhibition result in the series on Callithrix is “inactive”.
On to `CC(C)C[C@@H]1NC(=O)[C@H](CCCCN)NC(=O)[C@H](C)NC(=O)C(C)(C)NC(=O)[C@H](CC(C)C)NC(=O)[C@H](CCCNC(=N)N)NC(=O)[C@H](CCC(=O)O)NC(=O)[C@H](Cc2ccccc2)NC(=O)[C@H](Cc2ccc(O)cc2)NC(=O)CNC(=O)[C@H](CC(=O)O)NC(=O)[C@H](C(C)C)NC(=O)[C@H](Cc2cnc[nH]2)NC(=O)[C@H](C(C)C)NC(=O)[C@H](CC(N)=O)NC(=O)[C@H]2CCCN2C(=O)[C@H](CCCCN)NC(=O)[C@H](CO)NC(=O)[C@H](CCC(N)=O)NC(=O)[C@H](Cc2ccccc2)NC(=O)CCOCCOCCOCCNC1=O`, for which the remaining at 24 h in [3] is 38.1%; in [4], 62.8%.
Regarding `CCCCCCCCCCCCCC(=O)NCCCOCCOCCOCCCNC(=O)CCNCCCC[C@H](NC(=O)[C@H](CC(C)C)NC(=O)[C@H](CCCCN)NC(=O)[C@H](C)NC(=O)C(C)(C)NC(=O)[C@H](CC(C)C)NC(=O)[C@H](CCCNC(=N)N)NC(=O)[C@H](CCC(=O)O)NC(=O)[C@H](Cc1ccccc1)NC(=O)[C@H](Cc1ccc(O)cc1)NC(=O)[C@@H](C)NC(=O)[C@H](CC(=O)O)NC(=O)[C@@H](NC(=O)[C@H](Cc1cnc[nH]1)NC(=O)[C@@H](NC(=O)[C@H](CSCNC(C)=O)NC(=O)[C@H]1CCCN1C(=O)[C@H](CCCCN)NC(=O)[C@H](CO)NC(=O)[C@H](CCC(N)=O)NC(=O)[C@H](Cc1ccccc1)NC(=O)CCCCC)C(C)C)C(C)(C)C)C(N)=O`, the remaining at 24 h in series [3] came to 67.5%; in series [4] it was 96.5%.
On to `CC(=O)N[C@@H](Cc1ccccc1)C(=O)N[C@@H](CCC(N)=O)C(=O)N[C@@H](CO)C(=O)N[C@@H](CCCCN)C(=O)N1CCC[C@@H]1C(=O)N[C@@H](CC(N)=O)C(=O)N[C@H](C(=O)N[C@@H](Cc1cnc[nH]1)C(=O)N[C@H](C(=O)N[C@@H](CC(=O)O)C(=O)N[C@H](C)C(=O)N[C@@H](Cc1ccc(O)cc1)C(=O)N[C@@H](Cc1ccccc1)C(=O)N[C@@H](CCC(=O)O)C(=O)N[C@@H](CCCNC(=N)N)C(=O)N[C@@H](CC(C)C)C(=O)NC1(C(=O)N[C@@H](C)C(=O)N[C@@H](CCCCN)C(=O)N[C@@H](CC(C)C)C(N)=O)Cc2ccccc2C1)C(C)(C)C)C(C)C`, for which the remaining at 24 h in [3] amounted to 53%; in series [4] it was 104%.
The like results for `CC(=O)N[C@@H](Cc1ccccc1)C(=O)N[C@@H](CCC(N)=O)C(=O)N[C@@H](CO)C(=O)N[C@@H](CCCCN)C(=O)N1CCC[C@@H]1C(=O)N[C@@H](CC(N)=O)C(=O)N[C@H](C(=O)N[C@@H](Cc1ccc2ccccc2c1)C(=O)N[C@H](C(=O)N[C@@H](CC(=O)O)C(=O)N[C@H](C)C(=O)N[C@@H](Cc1ccc(O)cc1)C(=O)N[C@@H](Cc1ccccc1)C(=O)N[C@@H](CCC(=O)O)C(=O)N[C@@H](CCCNC(=N)N)C(=O)N[C@@H](CC(C)C)C(=O)NC(C)(C)C(=O)N[C@@H](C)C(=O)N[C@@H](CCCCN)C(=O)N[C@@H](CC(C)C)C(N)=O)C(C)(C)C)C(C)C` were, in that order, 51.1% and 88.8%.
